These results are taken from patent US8058344B2, “Glycodendrimers having biological activity” (Imperial Innovations Ltd, priority 2002, dated 2011).

By IC50 is commonly meant the midpoint of a concentration-inhibition curve. Lower therefore signals greater potency.

For data set [1], the system named is human umbilical vein endothelial cells. As to the kind of experiment: Endothelial microtubule formation assay on Matrigel. It is filed as cell-based. The settings on record: 100 μg/ml; 18 h; scale 0-4. As for the experimental part:
The endothelial microtubule formation assay was performed by isolating human umbilical vein endothelial cells from umbilical cords within 6 h of delivery by caesarean section. The embilical vein was cannulated and 0.1% collagenase in phosphate buffered saline was introduced and incubated for 20 minutes. The endothelial cells liberated by the collagenase were obtained by washing the umbilical vein with Medium 199. The cells were washed three times with Medium 199 and then cultured in tissue culture flasks coated with fibronectin. Growth media consisted of Medium 199 with 20% foetal bovine serum, 30 μg/ml endothelial cell growth supplement, 10 IU/ml heparin, 100 IU/ml penicillin, 100 μg/1 ml streptomycin and 2 mM L-glutamine. Human umbilical vein endothelial cells were passaged at confluence after treatment with trypsin-EDTA. All cells were used at passages to 6.
Aliquots of Matrigel were dispensed into 35 mm diameter tissue culture dishes on ice and then incubated at 37° C. for 10 min to allow the gel to set. […] At various time points from 8-24 hours, the plates were examined and scored using a published scheme from 0-4, where 0=all adherent cells remain single, and 4=all adherent cells involved in tubular structures. New vessel formation was quantified blind by three different observers at 18 h. […]
Endothelial microtubule formation by HUVECs on Matrigel (×40 magnification). A visual analogue scale was used to determine the extent of tube formation and scored on a scale from 0 (all cells remain single) to 4 (all cells involved in tubular structures) as previously described (Bauer J, Margolis M, Schreiner C, Edgell C-J, Azizkhan J, Lazarowski E, & Juliano R L. (1992) In vitro model of angiogenesis using a human endothelium derived permanent cell line: contributions of induced gene expression, G-proteins and integrins. J. Cellular Physiology 153: 437-449; Liaw, L & Schwartz S M. (1993) Microtubule disruption stimulates DNA synthesis in bovine endothelial cells and potentiates cellular response to basic fibroblast growth factor. […]

In data set [2] the test system is freshly isolated human PBMN cells and human MDM. As to the kind of experiment: Toxicity against primary human cells in vitro, MTT assay. It is filed as cell-based. The settings on record: up to the maximum concentration of 1,000 μg/ml. As for the experimental part:
The dendrimers and the dendrimer conjugates were incubated with freshly isolated, human peripheral blood mononuclear (PBMN) cells and with freshly isolated human monocyte-derived-macrophages QDM).
Human PBMN cells and human MDMs were separated from buffy coat residues within 24 h of collection by density gradient centrifugation. […] The monocytes were allowed to differentiate to MDMs by a further 3 days of adherence. The compounds were then added to PBMN cells or to MDMs (1×10^6 cells/ml) and incubated for 67 h. Cell viability was assessed using the MTT assay at 72 h.
For orientation: Tetrazolium assays rely on reduction of a dye to a coloured formazan, in cell work by metabolically active cells.

For data set [3], the system named is Sup-T1, C8166, U937, U87-CD4-CCR5 and B16F10 cells. The experiment in a line: Toxicity in cell lines, MTT assay, stated over all cell lines. The settings on record: concentrations up to 1,000 μg/ml. In kind it is cell-based, human; murine. As for the experimental part:
(§1) The compounds synthesised were evaluated for their toxicity in the following cell lines:—the human T-cell line (Sup-T1), a human T-cell line transformed with HTLV-1 (C8166), the human monocytic cell line (U937), the brain cell line transfected with human CD4 and the human chemokine receptor CCR5 (U87-CD4-CCR5), and the murine melanoma cell line (B16P10).
(§2) Dendrimers, glucosamine, glucosamine 6-sulfate and dendrimer conjugates were incubated with each cell line. […] The conjugates or controls were incubated for 67 h with the cells at concentrations ranging from […]. An MTT assay was then used to determine cell viability and the results were expressed as a percentage of that for cells grown in the absence of any compound.

The subject of data set [4] is human T-cell line transformed with HTLV-1 (C8166). As to the kind of experiment: Toxicity in cell lines, MTT assay. The settings on record: 67 h, ± SEM (n = 16). It is filed as cell-based. On the procedure:
as §1, §2

The subject of data set [5] is brain cell line transfected with human CD4 and the human chemokine receptor CCR5 (U87-CD4-CCR5). The experiment in a line: Toxicity in cell lines, MTT assay. The settings on record: 67 h, ± SEM (n = 16). It is filed as cell-based. As for the experimental part: as §1, §2
Data set [6] relates to human T-cell line (Sup-T1). The experiment in a line: Toxicity in cell lines, MTT assay. The settings on record: 67 h, ± SEM (n = 16). It is filed as cell-based. On the procedure:
as §1, §2

The test system of data set [7] is human monocytic cell line (U937). As to the kind of experiment: Toxicity in cell lines, MTT assay. It is filed as cell-based. The settings on record: U-937, 67 h, ± SEM (n = 16). On the procedure:
as §1, §2

In data set [8] the test system is murine melanoma cell line (B16F10). The experiment in a line: Toxicity in cell lines, MTT assay. It is filed as cell-based. The settings on record: Mus musculus, B16-F10, 67 h, ± SEM (n = 16). As for the experimental part: as §1, §2

On to `N[C@H]1C(O)O[C@H](COS(=O)(=O)O)[C@@H](O)[C@@H]1OS(=O)(=O)O` (stereo partly shown) [glucosamine 3,6-disulfate], for which the “Tube formation score (n = 4)” value in data set [1] turned out to be 4.

With `N[C@H]1C(O)O[C@H](COS(=O)(=O)O)[C@@H](O)[C@@H]1O` (stereo partly shown) [glucosamine 6-sulfate], in data set [1], the “Tube formation score (n = 4)” value is 4. In data set [2], the “toxicity to PBMN cells or to MDMs” value was “not toxic”. In addition, the toxicity entry in data set [3] is recorded as “no toxicity”. Besides, the IC50 in data set [4], in data set [5], in data set [6], in data set [7] and in data set [8] was over 1000 µg/mL throughout.

Regarding `N[C@H]1C(O)O[C@H](CO)[C@@H](O)[C@@H]1O` (stereo partly shown) [glucosamine], the “Tube formation score (n = 4)” value in data set [1] came to 4. The toxicity result in data set [3] is “no toxicity”. Further, the IC50 in data set [4], in data set [5], in data set [6], in data set [7] and in data set [8] was over 1000 µg/mL each time.
